Source: US11066357B2, “Benzoannulene derivatives as antiviral agents” (Southern Research Institute, priority 2017, dated 2021)

Legend:
CHIKV = experiment: antiviral activity (EC50), Table 1; format: cell-based; conditions: Chikungunya virus
[1] = cytotoxicity (CC50), Table 1

SMILES | EC50 (CHIKV) [µM] | CC50 [1] [µM]
COc1nc2c(cc1C(=O)Nc1ccc(C(C)(C)C)cn1)CCCCC2 [Compound 37, N-(5-(tert.-butyl)pyridin-2-yl)-2-methoxy-6,7,8,9-tetrahydro-5H-cyclohepta[b]pyridine-3-carboxamide] | 13.6 | > 40
COc1cc2c(cc1C(=O)Nc1ccc(C(C)(C)C)cc1)CCCCC2 [Compound 1, N-(4-(tert.-butyl)phenyl)-3-methoxy-6,7,8,9-tetrahydro-5H-benzo[7]annulene-2-carboxamide] | 0.32 | > 40
COc1cc2c(cc1C(=O)Nc1ccc(C(O)(C(F)(F)F)C(F)(F)F)cc1)CCCCC2 [Compound 12, N-(4-(1,1,1,3,3,3-hexafluoro-2-hydroxypropan-2-yl)phenyl)-3-methoxy-6,7,8,9-tetrahydro-5H-benzo[7]annulene-2-carboxamide] | > 40 | > 40
